The values below come from US12679878B2, “CRF2 receptor agonists and their use in therapy” (SANOFI, priority 2020, dated 2026).

The target of the test is T1, human CRF2α receptor (Homo sapiens, UniProt Q13324).
T1 construct: expressed in transfected cells; host or cells: TeloHEAC
T1 sequence (Q13324 1-411): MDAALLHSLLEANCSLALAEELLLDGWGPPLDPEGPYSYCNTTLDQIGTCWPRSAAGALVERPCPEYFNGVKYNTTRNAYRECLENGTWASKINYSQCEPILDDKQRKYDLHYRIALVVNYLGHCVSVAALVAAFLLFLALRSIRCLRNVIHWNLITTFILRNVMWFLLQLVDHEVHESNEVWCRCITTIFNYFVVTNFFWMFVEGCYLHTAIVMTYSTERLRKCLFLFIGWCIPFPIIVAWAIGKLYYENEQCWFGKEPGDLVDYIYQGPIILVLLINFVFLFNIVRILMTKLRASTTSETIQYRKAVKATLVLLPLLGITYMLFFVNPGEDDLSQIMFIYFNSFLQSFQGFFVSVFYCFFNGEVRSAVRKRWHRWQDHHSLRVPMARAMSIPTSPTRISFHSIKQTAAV
Put plainly: cAMP agonism at human CRF2α receptor in TeloHEAC cells, FA modified peptides (Example 19.9). The note with it: 0% HSA, relative to urocortin 2. Type of test: cell-based. Here is the method: Agonism of compounds for human corticotropin-releasing factor 2α (CRF2α receptor) was determined by a functional assay measuring cAMP modulation upon treatment of TeloHEAC cells stably expressing human CRF2α receptor.
Compounds were dissolved at 0.5 mM in 100% DMSO and serially diluted (1:2) in 100% DMSO for 16 dilutions. 20 nL of each dilution was then transferred to 384-well assay plate using an acoustic droplet ejection instrument. 5 μL of compound buffer (1×HBSS; 20 mM HEPES, 2 mM IBMX, 0% or 0.2% HSA) were then added to each well.
Prior to use, frozen cells were thawed quickly at 37° C. and washed (5 min at 900 rpm) with 20 mL cell buffer (1×HBSS; 20 mM HEPES). Cells were resuspended in cell buffer and adjusted to a cell density of 800.000 cells/ml.
5 μL cells (final dell density: 4000 cells/well) were dispensed in the compound-containing 384-well assay plate and incubated for 30 minutes 37° C.
The CAMP level in treated cells was determined using the Cisbio 62AM4PEC kit according to manufacturer's instruction. Finally, plates were incubated for 1 h at room temperature before measuring the fluorescence ratio between 665/620 nm.
The percent activity value (E %) was calculated by setting 100 nM of urocortin 2 (UCN2) as 100%. The in vitro potency of the compounds was quantified by determining the concentrations that caused 50% activation of maximal response (EC50) relative to urocortin 2.

Starred links: 1 amine or outer side, 2 acyl side, 3 side chain; linkers in the order of their positions; H or OH if unused. Non-standard residues stand in square brackets, D forms with d. Residues, ends and D or L forms follow the SMILES beside them. Groups on a side chain read outwards from the residue. *: point of attachment. γGlu = O=C(O)[C@H](CCC(=O)[*:2])N[*:1]; Palmitoyl = CCCCCCCCCCCCCCCC(=O)*; AEEA = NCCOCCOCC(=O)O; Aib = CC(C)(N)C(=O)O

For orientation: EC50 means the concentration giving half of the maximal effect. A lower EC50 goes with an effect from little substance.

Regarding `CCCCCCCCCCCCCCCC(=O)N[C@@H](CCC(=O)NCCOCCOCC(=O)NCCOCCOCC(=O)NCCCC[C@H](NC(=O)[C@H](CC(C)C)NC(=O)[C@H](CCCCN)NC(=O)[C@@H](NC(=O)[C@@H]1CCCN1C(=O)[C@H](NC(=O)[C@H](CC(=O)O)NC(=O)[C@H](CC(C)C)NC(=O)[C@H](CO)NC(=O)[C@H](CC(C)C)NC(=O)[C@@H](NC(=O)[C@@H](N)[C@@H](C)CC)C(C)C)C(C)C)[C@@H](C)CC)C(=O)N[C@@H](CCC(N)=O)C(=O)N[C@H](C(=O)N[C@@H](CC(C)C)C(=O)N[C@@H](CC(C)C)C(=O)N[C@@H](CCCCN)C(=O)N[C@@H](CCC(N)=O)C(=O)N[C@@H](CCC(=O)O)C(=O)N[C@@H](CCCNC(=N)N)C(=O)N[C@@H](CCC(N)=O)C(=O)N[C@@H](CCCCN)C(=O)NC(C)(C)C(=O)N[C@@H](CCC(N)=O)C(=O)N[C@@H](CCCNC(=N)N)C(=O)N[C@@H](CCC(=O)O)C(=O)N[C@@H](CCC(N)=O)C(=O)N[C@@H](C)C(=O)N[C@@H](CCC(=O)O)C(=O)N[C@@H](CCCCN)C(=O)N[C@@H](CC(N)=O)C(=O)N[C@@H](CCCCN)C(=O)N[C@@H](CCC(N)=O)C(=O)N[C@H](C(=O)N[C@@H](CC(C)C)C(=O)N[C@@H](C)C(=O)N[C@@H](CCC(N)=O)C(=O)N[C@H](C(N)=O)C(C)C)[C@@H](C)CC)[C@@H](C)CC)C(=O)O` [compound 205] (H-IVLSLD[dV]PIKLK([AEEA-AEEA-γGlu-Palmitoyl])QILLKQERQK[Aib]QREQAEKNKQILAQV-NH2; N-terminus assumed), the EC50 was found to be 0.32 nM. The value for `CCCCCCCCCCCCCCCC(=O)N[C@@H](CCC(=O)N[C@@H](CCC(=O)NCCOCCOCC(=O)NCCOCCOCC(=O)NCCCC[C@H](NC(=O)[C@H](CC(C)C)NC(=O)[C@H](CCCCN)NC(=O)[C@@H](NC(=O)[C@@H]1CCCN1C(=O)[C@H](NC(=O)[C@H](CC(=O)O)NC(=O)[C@H](CC(C)C)NC(=O)[C@H](CO)NC(=O)[C@H](CC(C)C)NC(=O)[C@@H](NC(=O)[C@@H](N)[C@@H](C)CC)C(C)C)C(C)C)[C@@H](C)CC)C(=O)N[C@@H](CCC(N)=O)C(=O)N[C@H](C(=O)N[C@@H](CC(C)C)C(=O)N[C@@H](CC(C)C)C(=O)N[C@@H](CCCCN)C(=O)N[C@@H](CCC(N)=O)C(=O)N[C@@H](CCC(=O)O)C(=O)N[C@@H](CCCNC(=N)N)C(=O)N[C@@H](CCC(N)=O)C(=O)N[C@@H](CCCCN)C(=O)NC(C)(C)C(=O)N[C@@H](CCC(N)=O)C(=O)N[C@@H](CCCNC(=N)N)C(=O)N[C@@H](CCC(=O)O)C(=O)N[C@@H](CCC(N)=O)C(=O)N[C@@H](C)C(=O)N[C@@H](CCC(=O)O)C(=O)N[C@@H](CCCCN)C(=O)N[C@@H](CC(N)=O)C(=O)N[C@@H](CCCCN)C(=O)N[C@@H](CCC(N)=O)C(=O)N[C@H](C(=O)N[C@@H](CC(C)C)C(=O)N[C@@H](C)C(=O)N[C@@H](CCC(N)=O)C(=O)N[C@H](C(N)=O)C(C)C)[C@@H](C)CC)[C@@H](C)CC)C(=O)O)C(=O)O` [compound 206] (H-IVLSLD[dV]PIKLK([AEEA-AEEA-γGlu-γGlu-Palmitoyl])QILLKQERQK[Aib]QREQAEKNKQILAQV-NH2; N-terminus assumed) was 0.09 nM. For `CCCCCCCCCCCCCCCC(=O)N[C@@H](CCC(=O)NCCOCCOCC(=O)NCCOCCOCC(=O)NCCCC[C@H](NC(=O)[C@H](CC(C)C)NC(=O)[C@H](CCCCN)NC(=O)[C@@H](NC(=O)[C@@H]1CCCN1C(=O)[C@H](NC(=O)[C@H](CC(=O)O)NC(=O)[C@H](CC(C)C)NC(=O)[C@H](CO)NC(=O)[C@H](CC(C)C)NC(=O)[C@@H](NC(=O)[C@@H](N)[C@@H](C)CC)C(C)C)C(C)C)[C@@H](C)CC)C(=O)N[C@@H](CCC(N)=O)C(=O)N[C@H](C(=O)N[C@@H](CC(C)C)C(=O)N[C@@H](CC(C)C)C(=O)N[C@@H](CCCCN)C(=O)N[C@@H](CCC(N)=O)C(=O)N[C@@H](CCC(=O)O)C(=O)N[C@@H](CCCNC(=N)N)C(=O)N[C@@H](CCC(N)=O)C(=O)N[C@@H](CCCCN)C(=O)N[C@@H](CCCCN)C(=O)NC(C)(C)C(=O)N[C@@H](CCCNC(=N)N)C(=O)N[C@@H](CCC(N)=O)C(=O)N[C@@H](CCCCN)C(=O)N[C@@H](C)C(=O)N[C@@H](CCC(=O)O)C(=O)N[C@@H](CCCCN)C(=O)N[C@@H](CC(N)=O)C(=O)N[C@@H](CCCCN)C(=O)N[C@@H](CCC(N)=O)C(=O)N[C@H](C(=O)N[C@@H](CC(C)C)C(=O)N[C@@H](C)C(=O)N[C@@H](CCC(N)=O)C(=O)N[C@H](C(N)=O)C(C)C)[C@@H](C)CC)[C@@H](C)CC)C(=O)O` [compound 210] (H-IVLSLD[dV]PIKLK([AEEA-AEEA-γGlu-Palmitoyl])QILLKQERQKK[Aib]RQKAEKNKQILAQV-NH2), it took 2.98 nM to reach a half-maximal effect (EC50).

In the case of `CCCCCCCCCCCCCCCC(=O)N[C@@H](CCC(=O)N[C@@H](CCC(=O)NCCOCCOCC(=O)NCCOCCOCC(=O)NCCCC[C@H](NC(=O)[C@H](CC(C)C)NC(=O)[C@H](CCCCN)NC(=O)[C@@H](NC(=O)[C@@H]1CCCN1C(=O)[C@H](NC(=O)[C@H](CC(=O)O)NC(=O)[C@H](CC(C)C)NC(=O)[C@H](CO)NC(=O)[C@H](CC(C)C)NC(=O)[C@@H](NC(=O)[C@@H](N)[C@@H](C)CC)C(C)C)C(C)C)[C@@H](C)CC)C(=O)N[C@@H](CCC(N)=O)C(=O)N[C@H](C(=O)N[C@@H](CC(C)C)C(=O)N[C@@H](CC(C)C)C(=O)N[C@@H](CCCCN)C(=O)N[C@@H](CCC(N)=O)C(=O)N[C@@H](CCC(=O)O)C(=O)N[C@@H](CCCNC(=N)N)C(=O)N[C@@H](CCC(N)=O)C(=O)N[C@@H](CCCCN)C(=O)N[C@@H](CCCCN)C(=O)NC(C)(C)C(=O)N[C@@H](CCCNC(=N)N)C(=O)N[C@@H](CCC(N)=O)C(=O)N[C@@H](CCCCN)C(=O)N[C@@H](C)C(=O)N[C@@H](CCC(=O)O)C(=O)N[C@@H](CCCCN)C(=O)N[C@@H](CC(N)=O)C(=O)N[C@@H](CCCCN)C(=O)N[C@@H](CCC(N)=O)C(=O)N[C@H](C(=O)N[C@@H](CC(C)C)C(=O)N[C@@H](C)C(=O)N[C@@H](CCC(N)=O)C(=O)N[C@H](C(N)=O)C(C)C)[C@@H](C)CC)[C@@H](C)CC)C(=O)O)C(=O)O` [compound 211] (H-IVLSLD[dV]PIKLK([AEEA-AEEA-γGlu-γGlu-Palmitoyl])QILLKQERQKK[Aib]RQKAEKNKQILAQV-NH2), the EC50 is 0.94 nM. `CCCCCCCCCCCCCCCC(=O)N[C@@H](CCC(=O)NCCCC[C@H](NC(=O)[C@H](CC(C)C)NC(=O)[C@H](CCCCN)NC(=O)[C@@H](NC(=O)[C@@H]1CCCN1C(=O)[C@H](NC(=O)[C@H](CC(=O)O)NC(=O)[C@H](CC(C)C)NC(=O)[C@H](CO)NC(=O)[C@H](CC(C)C)NC(=O)[C@@H](NC(=O)[C@@H](N)[C@@H](C)CC)C(C)C)C(C)C)[C@@H](C)CC)C(=O)N[C@@H](CCC(N)=O)C(=O)N[C@H](C(=O)N[C@@H](CC(C)C)C(=O)N[C@@H](CC(C)C)C(=O)N[C@@H](CCCCN)C(=O)N[C@@H](CCC(N)=O)C(=O)N[C@@H](CCC(=O)O)C(=O)N[C@@H](CCCNC(=N)N)C(=O)N[C@@H](CCC(N)=O)C(=O)N[C@@H](CCCCN)C(=O)N[C@@H](CCCCN)C(=O)N[C@@H](CCC(N)=O)C(=O)N[C@@H](CCCNC(=N)N)C(=O)N[C@@H](CCC(=O)O)C(=O)N[C@@H](CCCCN)C(=O)N[C@@H](C)C(=O)N[C@@H](CCC(=O)O)C(=O)N[C@@H](CCCCN)C(=O)N[C@@H](CC(N)=O)C(=O)N[C@@H](CCCCN)C(=O)N[C@@H](CCC(N)=O)C(=O)N[C@H](C(=O)N[C@@H](CC(C)C)C(=O)N[C@@H](C)C(=O)N[C@@H](CCC(N)=O)C(=O)N[C@H](C(N)=O)C(C)C)[C@@H](C)CC)[C@@H](C)CC)C(=O)O` [compound 213] (H-IVLSLD[dV]PIKLK([γGlu-Palmitoyl])QILLKQERQKKQREKAEKNKQILAQV-NH2) yielded an EC50 of 4.48 nM.

The compound `CCCCCCCCCCCCCCCC(=O)N[C@@H](CCC(=O)NCCCC[C@H](NC(=O)[C@H](CC(C)C)NC(=O)CNC(=O)[C@@H](NC(=O)[C@@H]1CCCN1C(=O)[C@H](NC(=O)[C@H](CC(=O)O)NC(=O)[C@H](CC(C)C)NC(=O)[C@H](CO)NC(=O)[C@H](CC(C)C)NC(=O)[C@@H](NC(=O)[C@@H](N)[C@@H](C)CC)C(C)C)C(C)C)[C@@H](C)CC)C(=O)N[C@@H](CCC(N)=O)C(=O)N[C@H](C(=O)N[C@@H](CC(C)C)C(=O)N[C@@H](CC(C)C)C(=O)N[C@@H](CCCCN)C(=O)N[C@@H](CCC(N)=O)C(=O)N[C@@H](CCC(=O)O)C(=O)N[C@@H](CCCNC(=N)N)C(=O)N[C@@H](CCC(N)=O)C(=O)N[C@@H](CCCCN)C(=O)N[C@@H](CCCCN)C(=O)NC(C)(C)C(=O)N[C@@H](CCCNC(=N)N)C(=O)N[C@@H](CCC(=O)O)C(=O)N[C@@H](CCC(N)=O)C(=O)N[C@@H](C)C(=O)N[C@@H](CCC(=O)O)C(=O)N[C@H](C(=O)N[C@@H](CC(N)=O)C(=O)N[C@@H](CCCCN)C(=O)N[C@@H](CCC(N)=O)C(=O)N[C@H](C(=O)N[C@@H](CC(C)C)C(=O)N[C@@H](C)C(=O)N[C@@H](CCC(N)=O)C(=O)N[C@H](C(N)=O)C(C)C)[C@@H](C)CC)[C@@H](C)O)[C@@H](C)CC)C(=O)O` [compound 215] (H-IVLSLD[dV]PIGLK([γGlu-Palmitoyl])QILLKQERQKK[Aib]REQAETNKQILAQV-NH2; N-terminus assumed) registered an EC50 of 0.15 nM.
